Experimental data from US5000966A, “Quality improvement of alcoholic liquors by enzymatic decomposing of ethyl carbamate” (Takeda Chemical Industries, Ltd., priority 1987, dated 1991).

System: Candida krusoides ATCC 7345 enzyme capable of decomposing ethyl carbamate (partially purified crude enzyme of Example 5)
Test: Km of the ethyl carbamate-decomposing enzyme (ammonia formation, nitroprusside method)
Format: biochemical
Conditions: pH 4, 0.2M citrate buffer; substrate not given, taken as ethyl carbamate
Description: The activity of decomposing ethyl carbamate in the culture broth or its processed matter was determined colorimetrically by the nitroprusside method on ammonia produced by the reaction at 30° C. for 30 minutes of the mixture of a volume of a suspension of the cells in sterilized deionized water collected by centrifugation of the culture which had been diluted appropriately, […] The amount of enzyme to produce one micromole of ammonia per unit time (one minute) is expressed as 1 unit (1U). Candida krusoides ATCC 7345 was cultivated in the same manner as described in Example 1 to give 2 l of a culture broth having an activity of 0.007 U/ml for decomposing ethyl carbamate. The cells were collected from the culture broth by centrifugation, washed with 0.05M phosphate buffer (pH 7.2) twice, suspended in a solution containing 1 mM of EDTA and 1 mM of dithiothreitol, broken down by treating with a cell mill containing glass beads having 0.1-0.2 mm in diameter and were treated at 4500 rpm for 20 minutes The treated product was centrifuged and to the supernatant was added ammonium sulfate so that the concentration comes to 90%. […]

`CCOC(N)=O` [ethyl carbamate] gave a Km of 65 mM.
